Our source for the IC50 and EC50 values is patent publication US20260242391A1 (priority 2023, published 2026).

One data set in a line: in vitro. Particulars: human.
For another data set, the system named is HL-60. In words: HL-60 differentiation potency. It counts as cell-based. Particulars: Homo sapiens.

As usually defined, the IC50 is the concentration that gives 50% inhibition. One may read the EC50 as the concentration that produces a half-maximal response. Low values mean an effect from little substance, high ones a need for much substance. `C[C@H]1[C@@H](OCc2cc(C(=O)O)cc(C(=O)O)c2)O[C@@H]2O[C@@]3(C)CC[C@H]4[C@H](C)CC[C@@H]1[C@@]24OO3` [Compound 141, 5-((((3R,5aS,6R,8aS, 9R,10S,12R, 12aR)-3,6,9-trimethyldeca-hydro-12H-3,12-epoxy[1,2]dioxepino[4,3-i]isochromen-10-yl)oxy)methyl) isophthalic acid] returned an IC50 in the data set “in vitro” of more than 20000 nM. Moreover, in the data set with HL-60, the concentration for a half-maximal effect (EC50) was more than 20000 nM.

For `CNC(=O)N1CCN([C@@H]2O[C@@H]3O[C@@]4(C)CC[C@H]5[C@H](C)CC[C@@H]([C@H]2C)[C@@]35OO4)CC1` [Compound 67, N-methyl-4-((3R,5aS,6R,8aS, 9R,10R,12R, 12aR)-3,6,9-trimethyldeca-hydro-12H-3,12-epoxy[1,2]dioxepino[4,3-i]isochromen-10-yl)piperazine-1-carboxamide], the IC50 in the data set “in vitro” is more than 20000 nM. For the same molecule, the concentration for a half-maximal effect (EC50) in the data set with HL-60 is more than 20000 nM.

On to `C[C@H]1[C@@H](Oc2ccc(-c3ccc(C(=O)O)cc3)cc2)O[C@@H]2O[C@@]3(C)CC[C@H]4[C@H](C)CC[C@@H]1[C@@]24OO3` [Compound 107, 4′-(((3R,5aS,6R,8aS, 9R,10S,12R, 12aR)-3,6,9-trimethyldeca-hydro-12H-3,12-epoxy[1,2]dioxepino[4,3-i]isochromen-10-yl)oxy)-[1,1′-biphenyl]-4-carboxylic acid], for which, in “in vitro”, half-maximal inhibition (IC50) required 40 nM. The EC50 with HL-60 stood at 23.5 nM.

`C[C@H]1[C@H](OCc2ccc(S(N)(=O)=O)cc2)O[C@@H]2O[C@@]3(C)CC[C@H]4[C@H](C)CC[C@@H]1[C@@]24OO3` [Compound 49, 4-((((3R,5aS,6R,8aS, 9R,10R,12R, 12aR)-3,6,9-trimethyldeca-hydro-12H-3,12-epoxy[1,2]dioxepino[4,3-i]isochromen-10-yl)oxy)methyl) benzene-sulfonamide] yielded an IC50 in the data set “in vitro” not below 20000 nM. This molecule returned a 50% effective concentration (EC50) in the data set on HL-60 of 2100 nM.

`C[C@H]1[C@H](N2CCCCC2)O[C@@H]2O[C@@]3(C)CC[C@H]4[C@H](C)CC[C@@H]1[C@@]24OO3` [Compound 63, 1-((3R,5aS,6R,8aS, 9R,10R,12R, 12aR)-3,6,9-trimethyldeca-hydro-12H-3,12-epoxy[1,2]dioxepino[4,3-i]isochromen-10-yl)piperidine] registered an IC50 in “in vitro” of more than 20000 nM. Also, the concentration for a half-maximal effect (EC50) in the data set with HL-60 was more than 20000 nM.

Regarding `C[C@H]1[C@H](NCc2ccccc2)O[C@@H]2O[C@@]3(C)CC[C@H]4[C@H](C)CC[C@@H]1[C@@]24OO3` [Compound 101, (3R,5aS,6R,8aS, 9R,10R,12R, 12aR)-N-benzyl-3,6,9-trimethyldeca-hydro-12H-3,12-epoxy[1,2] dioxepino[4,3-i] isochromen-10-amine], in the data set “in vitro”, the 50% inhibitory concentration (IC50) was 1320 nM. The molecule further showed a 50% effective concentration (EC50) in the data set with HL-60 of 835 nM.

With `C[C@H]1[C@H](OCc2cccc(C(=O)O)c2)O[C@@H]2O[C@@]3(C)CC[C@H]4[C@H](C)CC[C@@H]1[C@@]24OO3` [Compound 91, 3-((((3R,5aS,6R,8aS, 9R,10R,12R, 12aR)-3,6,9-trimethyldeca-hydro-12H-3,12-epoxy[1,2]dioxepino[4,3-i]isochromen-10-yl)oxy)methyl) benzoic acid], the IC50 in the data set “in vitro” is more than 20000 nM. The same molecule gave an EC50 with HL-60 of 17500 nM.

For the molecule `C[C@H]1[C@H](NCCS(C)(=O)=O)O[C@@H]2O[C@@]3(C)CC[C@H]4[C@H](C)CC[C@@H]1[C@@]24OO3` [Compound 99, (3R,5aS,6R,8aS, 9R,10R,12R, 12aR)-3,6,9-trimethyl-N-(2-(methylsulfonyl)ethyl)decahydro-12H-3,12-epoxy [1,2]dioxepino [4,3-i]isochromen-10-amine], in “in vitro”, 743 nM corresponded to half-maximal inhibition (IC50). The same molecule yielded an EC50 with HL-60 of 660 nM.

`C[C@H]1[C@@H](OC[C@H]2CC[C@@H](C(=O)NC3CC3)CC2)O[C@@H]2O[C@@]3(C)CC[C@H]4[C@H](C)CC[C@@H]1[C@@]24OO3` [Compound 143, (1R,4s)-N-cyclopropyl-4-((((3R,5aS,6R,8aS, 9R,10S,12R, 12aR)-3,6,9-trimethyldeca-hydro-12H-3,12-epoxy[1,2]dioxepino[4,3-i]isochromen-10-yl)oxy)methyl) cyclohexane-1-carboxamide]: 1000 nM corresponded to half-maximal inhibition in the data set “in vitro” (IC50). The same molecule displayed a concentration for a half-maximal effect (EC50) in the data set on HL-60 of 72.6 nM.

With `C[C@H]1[C@@H](OCc2cc(C(=O)O)ccc2Cl)O[C@@H]2O[C@@]3(C)CC[C@H]4[C@H](C)CC[C@@H]1[C@@]24OO3` [Compound 167, 4-chloro-3-((((3R,5aS,6R,8aS, 9R,10S,12R, 12aR)-3,6,9-trimethyldeca-hydro-12H-3,12-epoxy[1,2]dioxepino[4,3-i]isochromen-10-yl)oxy)methyl) benzoic acid], the concentration for half-maximal inhibition (IC50) in the data set “in vitro” was determined as 10500 nM. It took 132 nM to reach a half-maximal effect in the data set on HL-60 (EC50).

Consider `C[C@H]1[C@@H](OCc2ccc(C(N)=O)cc2)O[C@@H]2O[C@@]3(C)CC[C@H]4[C@H](C)CC[C@@H]1[C@@]24OO3` [Compound 30, 4-((((3R,5aS, 6R,8aS,9R,10S, 12R,12aR)-3,6,9-trimethyldeca-hydro-12H-3,12-epoxy[1,2]dioxepino[4,3-i]isochromen-10-yl)oxy)methyl) benzamide], for which it took 3520 nM to reach half-maximal inhibition in the data set “in vitro” (IC50). Moreover, the midpoint of the response in the data set with HL-60, the EC50, lay at 300 nM.

`C[C@H]1[C@H](NCc2ccc(S(C)(=O)=O)cc2)O[C@@H]2O[C@@]3(C)CC[C@H]4[C@H](C)CC[C@@H]1[C@@]24OO3` [Compound 58, (3R,5aS,6R,8aS, 9R,10R,12R, 12aR)-3,6,9-trimethyl-N-(4-(methylsulfonyl)benzyl) decahydro-12H-3,12-epoxy[1,2] dioxepino[4,3-i] isochromen-10-amine] came in with an IC50 in the data set “in vitro” of 8340 nM. Further, the half-maximal effective concentration (EC50) in the data set on HL-60 is 9120 nM.

On to `C[C@H]1[C@H](OCc2ccc(B(O)O)cc2)O[C@@H]2O[C@@]3(C)CC[C@H]4[C@H](C)CC[C@@H]1[C@@]24OO3` [Compound 176, (4-((((3R,5aS,6R,8aS, 9R,10R,12R, 12aR)-3,6,9-trimethyldeca-hydro-12H-3,12-epoxy[1,2]dioxepino[4,3-i]isochromen-10-yl)oxy)methyl)phenyl)boronic acid], for which, in “in vitro”, the IC50 amounted to 400 nM. In the data set with HL-60, this molecule gave a half-maximal effective concentration (EC50) of 206 nM.

`COc1cc(CN[C@@H]2O[C@@H]3O[C@@]4(C)CC[C@H]5[C@H](C)CC[C@@H]([C@H]2C)[C@@]35OO4)ccn1` [Compound 50, (3R,5aS,6R,8aS, 9R,10R,12R, 12aR)-N-((2-methoxypyridin-4-yl)methyl)-3,6,9-trimethyldeca-hydro-12H-3,12-epoxy[1,2] dioxepino[4,3-i] isochromen-10-amine] displayed an IC50 in “in vitro” of 4880 nM. This molecule also had an EC50 with HL-60 of 2320 nM.

The molecule `C[C@H]1[C@@H](OCC23CCC(C(=O)O)(CC2)CC3)O[C@@H]2O[C@@]3(C)CC[C@H]4[C@H](C)CC[C@@H]1[C@@]24OO3` [Compound 75, 4-((((3R,5aS,6R, 8aS,9R,10S,12R, 12aR)-3,6,9-trimethyldeca-hydro-12H-3,12-epoxy[1,2]dioxepino[4,3-i]isochromen-10-yl)oxy)methyl) bicyclo[2.2.2] octane-1-carboxylic acid] registered a half-maximal inhibitory concentration (IC50) in “in vitro” of more than 20000 nM. Besides, it took 1180 nM to reach a half-maximal effect in the data set on HL-60 (EC50).

Molecule `C[C@H]1[C@H](OCC(=O)N2C[C@H]3[C@@H]([C@H]2C(=O)O)C3(C)C)O[C@@H]2O[C@@]3(C)CC[C@H]4[C@H](C)CC[C@@H]1[C@@]24OO3` [Compound 162, (1R,2S,5S)-6,6-dimethyl-3-(2-(((3R,5aS,6R,8aS, 9R,10R,12R, 12aR)-3,6,9-trimethyldeca-hydro-12H-3,12-epoxy[1,2]dioxepino[4,3-i]isochromen-10-yl)oxy)acetyl)-3-azabicyclo[3.1.0] hexane-2-carboxylic acid] came in with an IC50 in “in vitro” of more than 20000 nM. For the same molecule, in the data set on HL-60, a half-maximal effect (EC50) was put at 5750 nM.

`C[C@H]1[C@H](OCc2c(F)cc(C(=O)O)cc2F)O[C@@H]2O[C@@]3(C)CC[C@H]4[C@H](C)CC[C@@H]1[C@@]24OO3` [Compound 137, 3,5-difluoro-4-((((3R,5aS,6R,8aS, 9R,10R,12R, 12aR)-3,6,9-trimethyldeca-hydro-12H-3,12-epoxy[1,2]dioxepino[4,3-i]isochromen-10-yl)oxy)methyl) benzoic acid]: the IC50 in the data set “in vitro” is more than 20000 nM. Moreover, the response in the data set with HL-60 was half-maximal at 86.8 nM (EC50).

The molecule `C[C@H]1[C@@H](OCc2ccc(C(=O)O)c(Cl)c2)O[C@@H]2O[C@@]3(C)CC[C@H]4[C@H](C)CC[C@@H]1[C@@]24OO3` [Compound 33, 2-chloro-4-((((3R,5aS,6R, 8aS,9R,10S,12R, 12aR)-3,6,9-trimethyldeca-hydro-12H-3,12-epoxy[1,2]dioxepino[4,3-i]isochromen-10-yl)oxy)methyl) benzoic acid] had a half-maximal inhibitory concentration (IC50) in “in vitro” of more than 20000 nM. Moreover, the EC50 in the data set with HL-60 amounted to 343 nM.

In the case of `C[C@H]1[C@@H](Oc2ccc(CC(=O)O)c(F)c2F)O[C@@H]2O[C@@]3(C)CC[C@H]4[C@H](C)CC[C@@H]1[C@@]24OO3` [Compound 23, 2-(2,3-difluoro-4-(((3R,5aS,6R,8aS, 9R,10S,12R, 12aR)-3,6,9-trimethyldeca-hydro-12H-3,12-epoxy[1,2]dioxepino[4,3-i]isochromen-10-yl)oxy)phenyl) acetic acid], the IC50 in “in vitro” stood at 15000 nM. The molecule also came in with an EC50 in the data set with HL-60 of 192 nM.

For the molecule `C[C@H]1[C@@H](OC[C@H]2CC[C@@H](C(=O)O)N2C)O[C@@H]2O[C@@]3(C)CC[C@H]4[C@H](C)CC[C@@H]1[C@@]24OO3` [Compound 144, (2S,5R)-1-methyl-5-((((3R,5aS,6R,8aS, 9R,10S,12R, 12aR)-3,6,9-trimethyldeca-hydro-12H-3,12-epoxy[1,2]dioxepino[4,3-i]isochromen-10-yl)oxy)methyl) pyrrolidine-2-carboxylic acid], in the data set “in vitro”, the concentration for half-maximal inhibition (IC50) came to 14400 nM. The same molecule registered an EC50 in the data set with HL-60 of 3350 nM.

Molecule `C[C@H]1[C@@H](OC[C@H]2CC[C@@H](C(=O)O)C2)O[C@@H]2O[C@@]3(C)CC[C@H]4[C@H](C)CC[C@@H]1[C@@]24OO3` [Compound 136, (1R,3S)-3-((((3R,5aS,6R, 8aS,9R,10S,12R, 12aR)-3,6,9-trimethyldeca-hydro-12H-3,12-epoxy[1,2]dioxepino[4,3-i]isochromen-10-yl)oxy)methyl) cyclopentane-1-carboxylic acid] had a half-inhibitory concentration (IC50) in the data set “in vitro” of more than 20000 nM. Moreover, the EC50 in the data set with HL-60 came out at 197 nM.

On to `C[C@H]1[C@@H](OC2C3CC(C(=O)O)CC32)O[C@@H]2O[C@@]3(C)CC[C@H]4[C@H](C)CC[C@@H]1[C@@]24OO3` (stereo partly drawn) [Compound 158, 6-(((3R,5aS,6R,8aS, 9R,10S,12R, 12aR)-3,6,9-trimethyldeca-hydro-12H-3,12-epoxy[1,2]dioxepino[4,3-i]isochromen-10-yl)oxy)bicyclo [3.1.0]hexane-3-carboxylic acid], for which, in “in vitro”, the 50% inhibitory concentration (IC50) is more than 20000 nM. This molecule registered an EC50 in the data set on HL-60 of 4250 nM.
